Measured values published in patent EP0049968A1, “Pharmaceutical compositions” (priority 1980, dated 1982).
Where two headings read alike, the source gives them in different places.

Experiments:
E. coli = assay: MIC of compound (i) alone and in the presence of compound (iv), serial dilution in nutrient agar; type: cell-based
Procedure: Activities of the compound (i) against a number of pathogenic organisms alone, and in the presence of 1.0, 2.5, 5.0 and 10 µg/ml of compound (iv).

[1] = tested on: highly resistant E.coli strains (producing a plasmid mediated β-lactamase); assay: MIC of compound (i) alone and in combination with compound (iii), E. coli strains; type: cell-based; conditions: for MIC: Escherichia coli, compound (i) alone

SMILES: CC1(C)S[C@@H]2[C@H](NC(=O)[C@H](NC(=O)Nc3cnc(Nc4ccc(S(N)(=O)=O)cc4)nc3O)c3ccc(O)cc3)C(=O)N2[C@H]1C(=O)O [compound (i)]
- MIC (μg/ml) for compound (i) (E. coli; E. coli JT4 R+, compound (iv) 2.5 μg/ml): 2.5 µg/mL
- MIC (μg/ml) for compound (i) (E. coli; E. coli JT4 R+, compound (iv) 5.0 μg/ml): 1.0 µg/mL
- MIC (μg/ml) for compound (i) (E. coli; E. coli JT4 R+, compound (iv) 10 μg/ml): 0.5 µg/mL
- MIC (μg/ml) for compound (i) (E. coli; E. coli JT39 R+, compound (iv) 0 μg/ml (alone)): >100 µg/mL
- MIC (μg/ml) for compound (i) (E. coli; E. coli JT39 R+, compound (iv) 1.0 μg/ml): 1.0 µg/mL
- MIC (μg/ml) for compound (i) (E. coli; E. coli JT39 R+, compound (iv) 2.5 μg/ml): 0.5 µg/mL
- MIC (μg/ml) for compound (i) (E. coli; E. coli JT39 R+, compound (iv) 5.0 μg/ml): 0.5 µg/mL
- MIC (μg/ml) for compound (i) (E. coli; E. coli JT39 R+, compound (iv) 10 μg/ml): 0.1 µg/mL
- MIC ([1]; read-out: MIC µg/ml compound (i) alone, Geometric mean (± 95% confidence limits), geometric mean of 11 E. coli strains): > 160 µg/mL
- MIC ([1]; read-out: MIC µg/ml compound (i) alone, strain E96): > 160 µg/mL
- MIC ([1]; read-out: MIC µg/ml compound (i) alone, strain E110): > 160 µg/mL
- MIC ([1]; read-out: MIC µg/ml compound (i) alone, strain E121): > 161 µg/mL
- MIC ([1]; read-out: MIC µg/ml compound (i) alone, strain E124): > 160 µg/mL
- MIC ([1]; read-out: MIC µg/ml compound (i) alone, strain JT4): > 160 µg/mL
- MIC ([1]; read-out: MIC µg/ml compound (i) alone, strain JT9): > 160 µg/mL
- MIC ([1]; read-out: MIC µg/ml compound (i) alone, strain JT39): 160 µg/mL
- MIC ([1]; read-out: MIC µg/ml compound (i) alone, strain JT68): > 160 µg/mL
- MIC ([1]; read-out: MIC µg/ml compound (i) alone, strain P9): > 160 µg/mL
- MIC ([1]; read-out: MIC µg/ml compound (i) alone, strain P19): > 160 µg/mL
- MIC ([1]; read-out: MIC µg/ml compound (i) alone, strain SA15): > 160 µg/mL
- MIC µg/ml compound (i) compound (iii) (µg/ml) 1, Geometric mean (± 95% confidence limits) ([1]; geometric mean of 11 E. coli strains, with compound (iii) 1 µg/ml): 0.80 (0.16-4.1) µg/ml
- MIC µg/ml compound (i) compound (iii) (µg/ml) 2, Geometric mean (± 95% confidence limits) ([1]; geometric mean of 11 E. coli strains, with compound (iii) 2 µg/ml): 0.59 (0.15-2.2) µg/ml
- MIC µg/ml compound (i) compound (iii) (µg/ml) 5, Geometric mean (± 95% confidence limits) ([1]; geometric mean of 11 E. coli strains, with compound (iii) 5 µg/ml): 0.19 (0.07-0.53) µg/ml
- MIC µg/ml compound (i) compound (iii) (µg/ml) 10, Geometric mean (± 95% confidence limits) ([1]; geometric mean of 11 E. coli strains, with compound (iii) 10 µg/ml): 0.08 (0.02-0.30) µg/ml
- MIC µg/ml compound (i) compound (iii) (µg/ml) 1 ([1]; strain E96, with compound (iii) 1 µg/ml): 0.62 µg/mL
- MIC µg/ml compound (i) compound (iii) (µg/ml) 2 ([1]; strain E96, with compound (iii) 2 µg/ml): 0.62 µg/mL
- MIC µg/ml compound (i) compound (iii) (µg/ml) 5 ([1]; strain E96, with compound (iii) 5 µg/ml): 0.31 µg/mL
- MIC µg/ml compound (i) compound (iii) (µg/ml) 10 ([1]; strain E96, with compound (iii) 10 µg/ml): 0.31 µg/mL
- MIC µg/ml compound (i) compound (iii) (µg/ml) 1 ([1]; strain E110, with compound (iii) 1 µg/ml): 0.16 µg/mL
- MIC µg/ml compound (i) compound (iii) (µg/ml) 2 ([1]; strain E110, with compound (iii) 2 µg/ml): 0.16 µg/mL
- MIC µg/ml compound (i) compound (iii) (µg/ml) 5 ([1]; strain E110, with compound (iii) 5 µg/ml): 0.08 µg/mL
- MIC µg/ml compound (i) compound (iii) (µg/ml) 10 ([1]; strain E110, with compound (iii) 10 µg/ml): 0.02 µg/mL
- MIC µg/ml compound (i) compound (iii) (µg/ml) 1 ([1]; strain E121, with compound (iii) 1 µg/ml): 0.62 µg/mL
- MIC µg/ml compound (i) compound (iii) (µg/ml) 2 ([1]; strain E121, with compound (iii) 2 µg/ml): 0.31 µg/mL
- MIC µg/ml compound (i) compound (iii) (µg/ml) 5 ([1]; strain E121, with compound (iii) 5 µg/ml): 0.16 µg/mL
- MIC µg/ml compound (i) compound (iii) (µg/ml) 10 ([1]; strain E121, with compound (iii) 10 µg/ml): 0.08 µg/mL
- MIC µg/ml compound (i) compound (iii) (µg/ml) 1 ([1]; strain E124, with compound (iii) 1 µg/ml): 1.25 µg/mL
- MIC µg/ml compound (i) compound (iii) (µg/ml) 2 ([1]; strain E124, with compound (iii) 2 µg/ml): 0.62 µg/mL
- MIC µg/ml compound (i) compound (iii) (µg/ml) 5 ([1]; strain E124, with compound (iii) 5 µg/ml): 0.31 µg/mL
- MIC µg/ml compound (i) compound (iii) (µg/ml) 10 ([1]; strain E124, with compound (iii) 10 µg/ml): 0.16 µg/mL
- MIC µg/ml compound (i) compound (iii) (µg/ml) 1 ([1]; strain JT4, with compound (iii) 1 µg/ml): 40 µg/mL
- MIC µg/ml compound (i) compound (iii) (µg/ml) 2 ([1]; strain JT4, with compound (iii) 2 µg/ml): 20 µg/mL
- MIC µg/ml compound (i) compound (iii) (µg/ml) 5 ([1]; strain JT4, with compound (iii) 5 µg/ml): 2.5 µg/mL
- MIC µg/ml compound (i) compound (iii) (µg/ml) 10 ([1]; strain JT4, with compound (iii) 10 µg/ml): 1.25 µg/mL
- MIC µg/ml compound (i) compound (iii) (µg/ml) 1 ([1]; strain JT9, with compound (iii) 1 µg/ml): 1.25 µg/mL
- MIC µg/ml compound (i) compound (iii) (µg/ml) 2 ([1]; strain JT9, with compound (iii) 2 µg/ml): 0.62 µg/mL
- MIC µg/ml compound (i) compound (iii) (µg/ml) 5 ([1]; strain JT9, with compound (iii) 5 µg/ml): 0.08 µg/mL
- MIC µg/ml compound (i) compound (iii) (µg/ml) 10 ([1]; strain JT9, with compound (iii) 10 µg/ml): 0.08 µg/mL
- MIC µg/ml compound (i) compound (iii) (µg/ml) 1 ([1]; strain JT39, with compound (iii) 1 µg/ml): 0.16 µg/mL
- MIC µg/ml compound (i) compound (iii) (µg/ml) 2 ([1]; strain JT39, with compound (iii) 2 µg/ml): 0.16 µg/mL
- MIC µg/ml compound (i) compound (iii) (µg/ml) 5 ([1]; strain JT39, with compound (iii) 5 µg/ml): 0.08 µg/mL
- MIC µg/ml compound (i) compound (iii) (µg/ml) 10 ([1]; strain JT39, with compound (iii) 10 µg/ml): 0.02 µg/mL
- MIC µg/ml compound (i) compound (iii) (µg/ml) 1 ([1]; strain JT68, with compound (iii) 1 µg/ml): 0.16 µg/mL
- MIC µg/ml compound (i) compound (iii) (µg/ml) 2 ([1]; strain JT68, with compound (iii) 2 µg/ml): 0.31 µg/mL
- MIC µg/ml compound (i) compound (iii) (µg/ml) 5 ([1]; strain JT68, with compound (iii) 5 µg/ml): 0.16 µg/mL
- MIC µg/ml compound (i) compound (iii) (µg/ml) 10 ([1]; strain JT68, with compound (iii) 10 µg/ml): 0.08 µg/mL
- MIC µg/ml compound (i) compound (iii) (µg/ml) 1 ([1]; strain P9, with compound (iii) 1 µg/ml): 1.25 µg/mL
- MIC µg/ml compound (i) compound (iii) (µg/ml) 2 ([1]; strain P9, with compound (iii) 2 µg/ml): 0.62 µg/mL
- MIC µg/ml compound (i) compound (iii) (µg/ml) 5 ([1]; strain P9, with compound (iii) 5 µg/ml): 0.16 µg/mL
- MIC µg/ml compound (i) compound (iii) (µg/ml) 10 ([1]; strain P9, with compound (iii) 10 µg/ml): 0.08 µg/mL
- MIC µg/ml compound (i) compound (iii) (µg/ml) 1 ([1]; strain P19, with compound (iii) 1 µg/ml): 0.31 µg/mL
- MIC µg/ml compound (i) compound (iii) (µg/ml) 2 ([1]; strain P19, with compound (iii) 2 µg/ml): 0.31 µg/mL
- MIC µg/ml compound (i) compound (iii) (µg/ml) 5 ([1]; strain P19, with compound (iii) 5 µg/ml): 0.08 µg/mL
- MIC µg/ml compound (i) compound (iii) (µg/ml) 10 ([1]; strain P19, with compound (iii) 10 µg/ml): 0.02 µg/mL
- MIC µg/ml compound (i) compound (iii) (µg/ml) 1 ([1]; strain SA15, with compound (iii) 1 µg/ml): 2.5 µg/mL
- MIC µg/ml compound (i) compound (iii) (µg/ml) 2 ([1]; strain SA15, with compound (iii) 2 µg/ml): 1.25 µg/mL
- MIC µg/ml compound (i) compound (iii) (µg/ml) 5 ([1]; strain SA15, with compound (iii) 5 µg/ml): 0.31 µg/mL
- MIC µg/ml compound (i) compound (iii) (µg/ml) 10 ([1]; strain SA15, with compound (iii) 10 µg/ml): 0.08 µg/mL
